Test results taken from PubChem BioAssay (NCI).
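Each compound was tested at five concentrations against cells in 96-well plates for 48 hours. TGI is the concentration that stops growth completely.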

Experiments:
Experiment in all cases: NCI tumour cell line growth inhibition, 48 h
IGROV1 ovarian = test system: IGROV1 ovarian
CAKI-1 renal = test system: CAKI-1 renal
NCI/ADR-RES ovarian = test system: NCI/ADR-RES ovarian
MALME-3M melanoma = test system: MALME-3M melanoma
ACHN renal = test system: ACHN renal
PC-3 prostate = test system: PC-3 prostate
T-47D breast = test system: T-47D breast
K-562 leukemia = test system: K-562 leukemia
A498 renal = test system: A498 renal
SF-295 CNS = test system: SF-295 CNS
SK-OV-3 ovarian = test system: SK-OV-3 ovarian
BT-549 breast = test system: BT-549 breast
NCI-H23 lung = test system: NCI-H23 lung
MCF7 breast = test system: MCF7 breast
RXF 393 renal = test system: RXF 393 renal
CCRF-CEM leukemia = test system: CCRF-CEM leukemia
SN12C renal = test system: SN12C renal
RPMI-8226 leukemia = test system: RPMI-8226 leukemia
A549 NSCLC = test system: A549 NSCLC
HCT-15 colon = test system: HCT-15 colon
SK-MEL-5 melanoma = test system: SK-MEL-5 melanoma
U251 CNS = test system: U251 CNS
COLO 205 colon = test system: COLO 205 colon
HCT-116 colon = test system: HCT-116 colon
HL-60(TB) leukemia = test system: HL-60(TB) leukemia
DU-145 prostate = test system: DU-145 prostate
MDA-MB-435 = test system: MDA-MB-435
MDA-N = test system: MDA-N
SR leukemia = test system: SR leukemia
SK-MEL-28 melanoma = test system: SK-MEL-28 melanoma
OVCAR-8 ovarian = test system: OVCAR-8 ovarian
SF-268 CNS = test system: SF-268 CNS
LOX IMVI melanoma = test system: LOX IMVI melanoma
SNB-75 CNS = test system: SNB-75 CNS
NCI-H460 lung = test system: NCI-H460 lung
SK-MEL-2 melanoma = test system: SK-MEL-2 melanoma
UACC-62 melanoma = test system: UACC-62 melanoma
SW-620 colon = test system: SW-620 colon
OVCAR-5 ovarian = test system: OVCAR-5 ovarian
EKVX NSCLC = test system: EKVX NSCLC
OVCAR-3 ovarian = test system: OVCAR-3 ovarian
HS 578T breast = test system: HS 578T breast
SNB-19 CNS = test system: SNB-19 CNS
MOLT-4 leukemia = test system: MOLT-4 leukemia
M14 melanoma = test system: M14 melanoma
NCI-H522 lung = test system: NCI-H522 lung
OVCAR-4 ovarian = test system: OVCAR-4 ovarian
KM12 colon = test system: KM12 colon
HCC-2998 colon = test system: HCC-2998 colon
786-0 renal = test system: 786-0 renal
UO-31 renal = test system: UO-31 renal
MDA-MB-231 breast = test system: MDA-MB-231 breast
NCI-H226 lung = test system: NCI-H226 lung
HT29 colon = test system: HT29 colon
HOP-62 NSCLC = test system: HOP-62 NSCLC
SF-539 CNS = test system: SF-539 CNS
TK-10 renal = test system: TK-10 renal
HOP-92 NSCLC = test system: HOP-92 NSCLC
UACC-257 melanoma = test system: UACC-257 melanoma

For `CNC(=O)CNC(=O)N(C[C@@H]1CCCN1C(=O)[C@H](CC(C)C)NC(=O)OC(C)(C)C)C(C)C`, the TGI (IGROV1 ovarian) was > 100 µM, the TGI (CAKI-1 renal) was > 100 µM and the TGI (NCI/ADR-RES ovarian) was > 100 µM. The TGI (MALME-3M melanoma) was > 100 µM, the TGI (ACHN renal) was > 100 µM and the TGI (PC-3 prostate) was > 100 µM. The TGI (T-47D breast) was > 100 µM, the TGI (K-562 leukemia) was > 100 µM and the TGI (A498 renal) was > 100 µM. The TGI (SF-295 CNS) was > 100 µM, the TGI (SK-OV-3 ovarian) was > 100 µM and the TGI (BT-549 breast) was > 100 µM. The TGI (NCI-H23 lung) was > 100 µM, the TGI (MCF7 breast) was > 100 µM and the TGI (RXF 393 renal) was > 100 µM. The TGI (CCRF-CEM leukemia) was > 100 µM, the TGI (SN12C renal) was > 100 µM and the TGI (RPMI-8226 leukemia) was > 100 µM. For the same compound, the TGI (A549 NSCLC) was > 100 µM, the TGI (HCT-15 colon) was > 100 µM and the TGI (SK-MEL-5 melanoma) was > 100 µM. For the same compound, the TGI (U251 CNS) was > 100 µM, the TGI (COLO 205 colon) was > 100 µM and the TGI (HCT-116 colon) was > 100 µM. The TGI (HL-60(TB) leukemia) was > 100 µM, the TGI (DU-145 prostate) was > 100 µM and the TGI (MDA-MB-435) was > 100 µM. The TGI (MDA-N) was > 100 µM, the TGI (SR leukemia) was > 100 µM and the TGI (SK-MEL-28 melanoma) was > 100 µM. The TGI (OVCAR-8 ovarian) was > 100 µM, the TGI (SF-268 CNS) was > 100 µM and the TGI (LOX IMVI melanoma) was > 100 µM. For the same compound, the TGI (SNB-75 CNS) was > 100 µM, the TGI (NCI-H460 lung) was > 100 µM and the TGI (SK-MEL-2 melanoma) was > 100 µM. For the same compound, the TGI (UACC-62 melanoma) was > 100 µM, the TGI (SW-620 colon) was > 100 µM and the TGI (OVCAR-5 ovarian) was > 100 µM. For the same compound, the TGI (EKVX NSCLC) was > 100 µM, the TGI (OVCAR-3 ovarian) was > 100 µM and the TGI (HS 578T breast) was > 100 µM. The TGI (SNB-19 CNS) was > 100 µM, the TGI (MOLT-4 leukemia) was > 100 µM and the TGI (M14 melanoma) was > 100 µM. For the same compound, the TGI (NCI-H522 lung) was > 100 µM, the TGI (OVCAR-4 ovarian) was > 100 µM and the TGI (KM12 colon) was > 100 µM. For the same compound, the TGI (HCC-2998 colon) was > 100 µM, the TGI (786-0 renal) was > 100 µM and the TGI (UO-31 renal) was > 100 µM. For the same compound, the TGI (MDA-MB-231 breast) was > 100 µM, the TGI (NCI-H226 lung) was > 100 µM and the TGI (HT29 colon) was > 100 µM. For the same compound, the TGI (HOP-62 NSCLC) was > 100 µM.

`COC(=O)C1(Cc2ccccc2)Cc2cc3c(cc2C1O)CCC3` (stereo not drawn) gave a TGI (IGROV1 ovarian) of 32.1 µM, a TGI (CAKI-1 renal) of 31.3 µM and a TGI (NCI/ADR-RES ovarian) of 76.8 µM. The TGI (MALME-3M melanoma) was 30.7 µM, the TGI (ACHN renal) was 31.9 µM and the TGI (PC-3 prostate) was 37.3 µM. The TGI (T-47D breast) was 62.9 µM, the TGI (K-562 leukemia) was 67.6 µM and the TGI (A498 renal) was 40.2 µM. It also gave a TGI (SF-295 CNS) of 72 µM, a TGI (SF-539 CNS) of 36.7 µM and a TGI (SK-OV-3 ovarian) of 36 µM. It also gave a TGI (BT-549 breast) of 31.9 µM, a TGI (NCI-H23 lung) of 38.4 µM and a TGI (TK-10 renal) of 67.2 µM. For the same compound, the TGI (RXF 393 renal) was 32.5 µM, the TGI (CCRF-CEM leukemia) was 60.1 µM and the TGI (SN12C renal) was 33.3 µM. For the same compound, the TGI (RPMI-8226 leukemia) was 54.9 µM, the TGI (A549 NSCLC) was 59 µM and the TGI (HCT-15 colon) was > 100 µM. For the same compound, the TGI (SK-MEL-5 melanoma) was 29.3 µM, the TGI (COLO 205 colon) was 48.1 µM and the TGI (HCT-116 colon) was 31.8 µM. For the same compound, the TGI (HL-60(TB) leukemia) was > 100 µM, the TGI (DU-145 prostate) was 70.8 µM and the TGI (MDA-MB-435) was 32.2 µM. The TGI (MDA-N) was 34.6 µM, the TGI (SR leukemia) was > 100 µM and the TGI (SK-MEL-28 melanoma) was 32.4 µM. For the same compound, the TGI (OVCAR-8 ovarian) was 65.4 µM, the TGI (SF-268 CNS) was > 100 µM and the TGI (LOX IMVI melanoma) was 34.7 µM. The TGI (SNB-75 CNS) was > 100 µM, the TGI (NCI-H460 lung) was > 100 µM and the TGI (UACC-62 melanoma) was 32.6 µM. It also gave a TGI (SW-620 colon) of 30 µM, a TGI (OVCAR-5 ovarian) of 30.4 µM and a TGI (EKVX NSCLC) of 50.4 µM. The TGI (HOP-92 NSCLC) was 30.6 µM, the TGI (OVCAR-3 ovarian) was 31.7 µM and the TGI (HS 578T breast) was 34.7 µM. It also gave a TGI (MOLT-4 leukemia) of 42.9 µM, a TGI (NCI-H522 lung) of 34.4 µM and a TGI (OVCAR-4 ovarian) of 41.7 µM. It also gave a TGI (UACC-257 melanoma) of 42.9 µM, a TGI (KM12 colon) of 48.3 µM and a TGI (HCC-2998 colon) of 60.6 µM. It also gave a TGI (786-0 renal) of 28.9 µM, a TGI (MDA-MB-231 breast) of 38.1 µM and a TGI (NCI-H226 lung) of 41.3 µM. For the same compound, the TGI (HT29 colon) was 31.6 µM and the TGI (HOP-62 NSCLC) was 36.9 µM.
